Here are results for six molecules from patent US20130203591A1, “PESTICIDAL MIXTURES INCLUDING ISOXAZOLINE DERIVATIVES” (SYNGENTA CROP PROTECTION LLC, priority 2010, published 2013).

Structures are written as SMILES.

Format in all cases: cell-based
Assay [1] concerns Botrvtis cinerea. The assay is described as follows: Botrytis cinerea (gray mould) growth inhibition in nutrient broth, microtiter plate. On the procedure:
Botrvtis cinerea (Gray Mould):
(§1) Conidia of the fungus from cryogenic storage were directly mixed into nutrient broth (potato dextrose broth). After placing a (DMSO) solution of the test compounds into a microtiter plate (96-well format) the nutrient broth containing the fungal spores was added. The test plates were incubated at 24° C. and the inhibition of growth was determined photometrically after 72 hours.

The test system of assay [2] is Glomerella lagenarium (syn. Colletotrichum lagenarium). Briefly: Glomerella lagenarium (anthracnose of cucurbits) growth inhibition in nutrient broth, microtiter plate. On the procedure: Glomerella lagenarium (syn. Colletotrichum lagenarium), Anthracnose of Cucurbits:
Conidia of the fungus from cryogenic storage were directly mixed into nutrient broth (potato dextrose broth). After placing a (DMSO) solution of the test compounds into a microtiter plate (96-well format) the nutrient broth containing the fungal spores was added. The test plates were incubated at 24° C. and the inhibition of growth was determined photometrically after 72 hours at 620 nm.

Assay [3] relates to Septoria tritici. The assay is described as follows: Septoria tritici (leaf blotch) growth inhibition in nutrient broth, microtiter plate. On the procedure: Septoria tritici (Leaf Blotch):
as §1

The subject of assay [4] is Mycosphaerella arachidis (syn. Cercospora arachidicola). The assay is described as follows: Mycosphaerella arachidis (brown leaf spot of groundnut) growth inhibition in nutrient broth, microtiter plate. On the procedure:
Mycosphaerella arachidis (syn. Cercospora arachidicola), Brown Leaf Spot of Groundnut (Peanut):
Conidia of the fungus from cryogenic storage were directly mixed into nutrient broth (potato dextrose broth). After placing a (DMSO) solution of the test compounds into a microtiter plate (96-well format) the nutrient broth containing the fungal spores was added. The test plates were incubated at 24° C. and the inhibition of growth was determined photometrically after approximately 5-6 days at 620 nm.

In assay [5] the test system is Fusarium culmorum. Briefly: Fusarium culmorum (root rot) growth inhibition in nutrient broth, microtiter plate. The settings on record: for AVERAGE DEAD IN % Epoxiconazole: Epoxiconazole alone; for AVERAGE DEAD IN % Epoxiconazole / AVERAGE DEAD IN % COMPOUND I-A2: 48 hrs, 24° C.; for AVERAGE DEAD IN % COMPOUND I-A2: COMPOUND I-A2 alone. On the procedure:
Fusarium culmorum (Root Rot):
Conidia of the fungus from cryogenic storage were directly mixed into nutrient broth (potato dextrose broth). After placing a (DMSO) solution of the test compounds into a microtiter plate (96-well format) the nutrient broth containing the fungal spores was added. The test plates were incubated at 24° C. and the inhibition of growth was determined photometrically after 48 hrs.

[6] abbreviates: Epoxiconazole alone 0.25 ppm AI.
Setting [7] is: Epoxiconazole alone 0.0078125 ppm AI.
The mark [8] stands for this setting: Epoxiconazole alone 0.015625 ppm AI.
The mark [9] stands for this setting: Epoxiconazole alone 0.03125 ppm AI.
Setting [10] is: Azoxystrobin alone 0.015625 ppm AI.
The mark [11] stands for this setting: Azoxystrobin alone 0.03125 ppm AI.
[12] abbreviates: Azoxystrobin alone 0.0625 ppm AI.
Setting [13] is: Fluxapyroxad alone 0.125 ppm AI.
Where [14] appears, read: Pyraclostrobin alone 0.5 ppm AI.
The mark [15] stands for this setting: Pyraclostrobin alone 0.00390625 ppm AI.

As to `Fc1ccc([C@]2(Cn3cncn3)O[C@H]2c2ccccc2Cl)cc1` (racemic) [Epoxiconazole], the “AVERAGE DEAD IN %” value is given as 20% in assay [1] (setting [6]); 90% in assay [1] (Epoxiconazole alone 0.5 ppm AI); 100% in assay [1] (Epoxiconazole alone 1 ppm AI); 100% in assay [1] (Epoxiconazole alone 2 ppm AI); 20% in assay [2] (setting [6]); 50% in assay [2] (Epoxiconazole alone 0.5 ppm AI). Moreover, the “AVERAGE DEAD IN %” value in assay [2] (Epoxiconazole alone 1 ppm AI) is reported as 70%; in assay [2] (Epoxiconazole alone 2 ppm AI) it was 90%; in assay [3] (setting [7]), 0%; in assay [3] (setting [8]) it was 0%; in assay [3] (setting [9]) it was 20%; in assay [3] (Epoxiconazole alone 0.0625 ppm AI) it was 50%. In addition, the “AVERAGE DEAD IN %” value is listed as 70% in assay [3] (Epoxiconazole alone 0.125 ppm AI); 90% in assay [3] (setting [6]); 90% in assay [3] (Epoxiconazole alone 0.5 ppm AI); 90% in assay [3] (Epoxiconazole alone 1 ppm AI); 90% in assay [3] (Epoxiconazole alone 2 ppm AI); 0% in assay [4] (setting [7]). Moreover, the “AVERAGE DEAD IN %” value in assay [4] (setting [8]) stood at 0%; in assay [4] (setting [9]) it was 20%. For the same molecule, the “AVERAGE DEAD IN % Epoxiconazole” value in assay [5] (0.125 PPM AI), in assay [5] (0.25 PPM AI), in assay [5] (0.5 PPM AI), in assay [5] (1 PPM AI) and in assay [5] (2 PPM AI) was 20% in each case.
With `CO/C=C(/C(=O)OC)c1ccccc1Oc1cc(Oc2ccccc2C#N)ncn1` [Azoxystrobin], the “AVERAGE DEAD IN %” value in assay [2] (setting [10]) is 20%; in assay [2] (setting [11]) it was 50%; in assay [2] (setting [12]), 70%; in assay [2] (Azoxystrobin alone 0.125 ppm AI) it was 90%; in assay [3] (setting [11]), 20%; in assay [3] (setting [12]), 70%. Further, the “AVERAGE DEAD IN %” value in assay [4] (Azoxystrobin alone 0.0078125 ppm AI) is 0%; in assay [4] (setting [10]), 20%; in assay [4] (setting [11]), 70%; in assay [4] (setting [12]), 90%.
Turning to `O=C(Nc1ccccc1-c1ccc(Cl)cc1)c1cccnc1Cl` [Boscalid], the “AVERAGE DEAD IN %” value in assay [1] (Boscalid alone 0.0625 ppm AI) turned out to be 20%; in assay [1] (Boscalid alone 0.125 ppm AI) it was 20%; in assay [1] (Boscalid alone 0.25 ppm AI), 20%; in assay [1] (Boscalid alone 0.5 ppm AI), 50%; in assay [1] (Boscalid alone 1 ppm AI), 70%; in assay [1] (Boscalid alone 2 ppm AI), 90%. The “AVERAGE DEAD IN %” value in assay [3] (Boscalid alone 0.25 ppm AI) is 20%; in assay [3] (Boscalid alone 0.5 ppm AI), 50%; in assay [3] (Boscalid alone 1 ppm AI), 90%; in assay [3] (Boscalid alone 2 ppm AI), 100%; in assay [4] (Boscalid alone 0.125 ppm AI), 70%; in assay [4] (Boscalid alone 0.25 ppm AI), 100%. For the same molecule, in assay [4] (Boscalid alone 0.5 ppm AI), the “AVERAGE DEAD IN %” value is listed as 100%.
For `Cn1cc(C(=O)Nc2ccccc2-c2cc(F)c(F)c(F)c2)c(C(F)F)n1` [Fluxapyroxad], the “AVERAGE DEAD IN %” value is listed as 20% in assay [3] (setting [13]); 70% in assay [3] (Fluxapyroxad alone 0.25 ppm AI); 100% in assay [3] (Fluxapyroxad alone 0.5 ppm AI); 100% in assay [3] (Fluxapyroxad alone 1 ppm AI); 0% in assay [4] (Fluxapyroxad alone 0.015625 ppm AI); 20% in assay [4] (Fluxapyroxad alone 0.03125 ppm AI). Besides, the “AVERAGE DEAD IN %” value is on record as 50% in assay [4] (Fluxapyroxad alone 0.0625 ppm AI), 90% in assay [4] (setting [13]) and 100% in assay [4] (Fluxapyroxad alone 0.25 ppm AI).
Regarding `Cc1cc(C2=NOC(c3cc(Cl)cc(Cl)c3)(C(F)(F)F)C2)ccc1C(=O)NCC(=O)NCC(F)(F)F` (stereo not drawn) [I-A2], the “AVERAGE DEAD IN %” value in assay [1] (I-A2 alone 0.46875 ppm AI), in assay [1] (I-A2 alone 0.9375 ppm AI), in assay [1] (I-A2 alone 1.875 ppm AI), in assay [1] (I-A2 alone 3.75 ppm AI), in assay [1] (I-A2 alone 7.5 ppm AI) and in assay [1] (I-A2 alone 15 ppm AI) was 0% throughout. Moreover, the “AVERAGE DEAD IN %” value in assay [1] (I-A2 alone 30 ppm AI), in assay [1] (I-A2 alone 60 ppm AI), in assay [2] (I-A2 alone 0.1171875 ppm AI), in assay [2] (I-A2 alone 0.234375 ppm AI), in assay [2] (I-A2 alone 0.46875 ppm AI) and in assay [2] (I-A2 alone 0.9375 ppm AI) was 0% throughout. Moreover, the “AVERAGE DEAD IN %” value in assay [2] (I-A2 alone 1.875 ppm AI), in assay [2] (I-A2 alone 3.75 ppm AI), in assay [2] (I-A2 alone 7.5 ppm AI), in assay [2] (I-A2 alone 15 ppm AI), in assay [2] (I-A2 alone 30 ppm AI) and in assay [2] (I-A2 alone 60 ppm AI) was 0% in each case. Further, the “AVERAGE DEAD IN %” value in assay [3] (I-A2 alone 0.1171875 ppm AI), in assay [3] (I-A2 alone 0.234375 ppm AI), in assay [3] (I-A2 alone 0.46875 ppm AI), in assay [3] (I-A2 alone 0.9375 ppm AI), in assay [3] (I-A2 alone 1.875 ppm AI) and in assay [3] (I-A2 alone 3.75 ppm AI) was 0% throughout. In addition, the “AVERAGE DEAD IN %” value in assay [3] (I-A2 alone 7.5 ppm AI), in assay [3] (I-A2 alone 15 ppm AI), in assay [3] (I-A2 alone 30 ppm AI), in assay [3] (I-A2 alone 60 ppm AI), in assay [4] (I-A2 alone 0.1171875 ppm AI) and in assay [4] (I-A2 alone 0.234375 ppm AI) was 0% throughout. Also, the “AVERAGE DEAD IN %” value in assay [4] (I-A2 alone 0.46875 ppm AI), in assay [4] (I-A2 alone 0.9375 ppm AI), in assay [4] (I-A2 alone 1.875 ppm AI), in assay [4] (I-A2 alone 3.75 ppm AI), in assay [4] (I-A2 alone 7.5 ppm AI) and in assay [4] (I-A2 alone 15 ppm AI) was 0% each time. For the same molecule, the “AVERAGE DEAD IN %” value in assay [5] (I-A2 alone 3.75 ppm AI), in assay [5] (I-A2 alone 7.5 ppm AI), in assay [5] (I-A2 alone 15 ppm AI), in assay [5] (I-A2 alone 30 ppm AI) and in assay [5] (I-A2 alone 60 ppm AI) was 0% in each case. The “AVERAGE DEAD IN % COMPOUND I-A2” value in assay [5] (0.9375 PPM AI), in assay [5] (1.875 PPM AI), in assay [5] (3.75 PPM AI), in assay [5] (7.5 PPM AI), in assay [5] (15 PPM AI) and in assay [5] (30 PPM AI) was 0% in each case. Besides, in assay [5] (60 PPM AI), the “AVERAGE DEAD IN % COMPOUND I-A2” value was 0%.
For `COC(=O)N(OC)c1ccccc1COc1ccn(-c2ccc(Cl)cc2)n1` [Pyraclostrobin], the “AVERAGE DEAD IN %” value in assay [1] (Pyraclostrobin alone 0.125 ppm AI) came to 20%; in assay [1] (Pyraclostrobin alone 0.25 ppm AI), 20%; in assay [1] (setting [14]) it was 20%; in assay [1] (Pyraclostrobin alone 1 ppm AI), 50%; in assay [1] (Pyraclostrobin alone 2 ppm AI), 70%; in assay [2] (setting [15]), 70%. The “AVERAGE DEAD IN %” value is given as 90% in assay [2] (Pyraclostrobin alone 0.0078125 ppm AI); 90% in assay [3] (setting [15]); 90% in assay [4] (setting [15]); 20% in assay [5] (setting [14]); 20% in assay [5] (Pyraclostrobin alone 1 ppm AI); 20% in assay [5] (Pyraclostrobin alone 2 ppm AI).
